In patent US20230381117A1, “ANTI-OBESITY POTENTIAL OF BISDEMETHOXYCURCUMIN COMPOSITIONS” (SAMI-SABINSA GROUP LIMITED, priority 2020, published 2023):
Where two headings read alike, the source gives them in different places.

What was measured:
[1] = tested on: Mouse 3T3-L1 pre-adipocytes; assay: Adipogenesis inhibition, lipid accumulation by Oil red O staining in cultured 3T3L1; format: cell-based
Method: Stock was diluted 1000 times in DMEM to get 10 μg/ml final concentration and serially diluted. Insulin (Hi Media) was bought as a solution at a concentration of 20 mg/ml. This was diluted to 1 μg/ml in DMEM. IBMX (Sigma)—Stock of 5 mM was prepared in DMEM, and diluted 10 times to be used at a final concentration of 0.5 mM. Dexamethasone (Sigma)—A stock of 10 μM was prepared in DMEM and diluted 40 times to get a final concentration of 0.25 μM. Mouse 3T3-L1 pre-adipocytes were cultured in DMEM media containing 25 mM glucose, 10% heat-inactivated new born calf serum (NBCS) and antibiotics at 37° C. and 5% CO2. When the cells were 70-80% confluent, they were trypsinized, washed and seeded in 48 well plates at a density of 3×10^4 cells per well. […] After differentiation for two days, The media was replaced with DMEM containing insulin (1 μg/mL) and different concentrations of test ingredients on alternate days until the cells were processed after 3rd progression. Untreated cells grown in differentiation media and undifferentiated cells grown in NBCS media were taken as adipogenesis positive and negative controls for the experiment. Quantification of triglycerides accumulated in adipocytes was done by Oil red O staining.

[2] = tested on: high fat diet induced obesity in C57 mice; assay: High fat diet induced obesity in C57 mice; format: in vivo, C57/BL6 mice; conditions: high fat diet fed mice, 50 mg/kgbw; FIG. 6
Method: Animals-C57/BL6 mice, 6-8 weeks of age and 8 animals/Group (4 Male and 4 Female) were used for the study. […] The temperature and relative humidity was recorded once daily. Feed: […] Water was provided along with High Fat Diet to the animals throughout the acclimatization and experimental period. Water from water filter cum purifier was provided in animal feeding bottle with stainless steel sipper tubes. The design of the study groups is depicted in table 4. [table] Body weight of the animals was recorded in all the days of experimental period. At the end of the experimental period, the animals were sacrificed by cervical dislocation. Blood was collected and Serum was separated by centrifugation and used for the analysis of biochemical parameters. […] The following parameters were measured in the above groups: • Measurement of Body weight: Determination of Organ Weight13 Liver, Visceral adipose tissue (VAT) and subcutaneous adipose tissue (SAT) • Estimation of Cholesterol (Zak et al., (2009) A new method for the determination of serum cholesterol. J Clin Endocrinol Metab., 94(7), 2215-2220) • Estimation of Triglycerides (Foster L. B and Dunn R. T. (1973) Stable reagents for determination of serum triglycerides by a colorimetric Hantzsch condensation method. Clin Chem, 196, 338-340). • Estimation of HDL Cholesterol (Burstein et al., (1970). Determination of HDL cholesterol. […]

[3] = Table 2B, 1.5625 μg/ml, 3T3-L1, Oil red O, read-out: Adipogenesis inhibition
[4] = Table 2B, 3.125 μg/ml, 3T3-L1, Oil red O, read-out: Adipogenesis inhibition
[5] = 3T3-L1, read-out: Adipogenesis inhibition

| Compound | inhibition at 1.5625 µg/mL [1, 3] | inhibition at 3.125 µg/mL [1, 4] | Adverse effect on weight of the liver / critical organs [2] | inhibition at 1.5625 µg/mL [1, 5] | inhibition at 3.125 µg/mL [1, 5] |
| --- | --- | --- | --- | --- | --- |
| COc1cc(/C=C/C(=O)CC(=O)/C=C/c2ccc(O)c(OC)c2)ccc1O [Curcumin, curcumin] | 11.6% | 11.1% |  |  |  |
| O=C(/C=C/c1ccc(O)cc1)CC(=O)/C=C/c1ccc(O)cc1 [BDMC, bisdemethoxycurcumin] | 20.2% | 16.2% | does not induce any adverse effects |  |  |
| COc1cc(/C=C/C(O)=C/C(=O)/C=C/c2ccc(O)cc2)ccc1O [DMC, demethoxycurcumin] |  |  |  | 21% | 19.4% |
